Experiments:
[1] = Solubility under the conditions of the assay; settings: Ellman's assay conditions
Experimental: (§1) In this study, carboxamides with different triterpenoic backbones (ursolic, oleanolic, maslinic, betulinic, and platanic acids), and various amine residues (Scheme 1), were investigated.
(§2) 3.1 Preparation of the solutions
(§3) Preparation of 50 mM Tris-HCl buffer solutions: Tris(hydroxymethyl)-aminomethane (606 mg) was dissolved in bidestilled water (100 mL) and adjusted with HCl to a pH of 8.0 ± 0.1. Buffers were freshly prepared and stored in the refrigerator. AChE solution 2.005 U/mL: the enzyme (271 U/mg, 0.037 mg) was dissolved in freshly prepared buffer pH 8.0 (5 mL) containing NaN3 (0.98 mg). BChE solution 2.040 U/mL: the enzyme (7.54 U/mg, 1.353 mg) was dissolved in freshly prepared buffer pH 8.0 (5 mL) containing NaN3 (0.98 mg). DTNB solution 3 mM: DTNB (23.8 mg) was dissolved in freshly prepared buffer pH 8.0 (20 mL) containing NaCl (116.8 mg) and MgCl2 (38.0 mg). ATChI solution 15 mM:
(§4) ATChI (43.4 mg) was dissolved in bidestilled water (10 mL). All solutions were stored in Eppendorf caps in the refrigerator or in the freezer, if necessary. The pure compounds were […]
(§5) dissolved in bidistilled water. The final concentrations for the enzymatic assay were obtained by diluting the stock solution with bidistilled water.
(§6) A mixture of the DTNB solution (125 µL), enzyme solution (25 µL) and compounds solutions (25 µL, 3 different concentrations and once blank water) was prepared and incubated at 30 °C for 20 min. The substrate (25 µL, 4 different concentrations) was added to start the enzymatic reaction. The absorbance data (l = 415 nm) was recorded under a controlled temperature of 30 °C for 30 min at 1 min intervals. The substrate concentrations in the test were as follows: […]
(§7) determined as the quotient of the slopes (compound divided by blank) of the linear ranges.
(§8) The used substrate concentration was 0.625 mM. The absorbance data was recorded under a controlled temperature of 30 °C for 10 min.

[2] = target: acetylcholinesterase (AChE, electric eel) (Electrophorus electricus, UniProt O42275); settings: for Grade of inhibition in% AChE: c = 10 µM
Description: as §1
(§9) A TECAN SpectraFluorPlus working in the kinetic mode and measuring the absorbance at λ = 415 nm was used for the enzymatic studies. Acetylcholinesterase (from Electrophorus electricus), 5,5′-dithiobis-(2-nitrobenzoic acid) (DTNB) and acetylthiocholine iodide were purchased from Sigma. Butyrylcholinesterase (from equine serum) was purchased from Fluka. Preparation of the solutions, assay procedure, as well as molecular modeling conditions can be found in the Supplementary Materials.
as §2, §3, §4, §5, §6, §7, §8

[3] = target: T1, butyrylcholinesterase (BChE, equine serum) (Equus caballus, UniProt P81908); experiment: Ellman's assay, butyrylcholinesterase inhibition; format: biochemical; settings: for Type of Inhibition / Ki′ (uncompetitive inhibition) / Ki: BChE, equine serum; for Ki′ (uncompetitive inhibition) / Ki: Ellman's assay; for Ki: read-out: Ki (competitive inhibition); for Grade of inhibition in% BChE: c = 10 µM, mean ± SE
T1 construct: Butyrylcholinesterase (from equine serum) was purchased from Fluka; purchased Fluka; host or cells: equine serum
Description: as §1, §9, §2, §3, §4, §5, §6, §7, §8

Sequence of acetylcholinesterase (AChE, electric eel) (O42275 24-633): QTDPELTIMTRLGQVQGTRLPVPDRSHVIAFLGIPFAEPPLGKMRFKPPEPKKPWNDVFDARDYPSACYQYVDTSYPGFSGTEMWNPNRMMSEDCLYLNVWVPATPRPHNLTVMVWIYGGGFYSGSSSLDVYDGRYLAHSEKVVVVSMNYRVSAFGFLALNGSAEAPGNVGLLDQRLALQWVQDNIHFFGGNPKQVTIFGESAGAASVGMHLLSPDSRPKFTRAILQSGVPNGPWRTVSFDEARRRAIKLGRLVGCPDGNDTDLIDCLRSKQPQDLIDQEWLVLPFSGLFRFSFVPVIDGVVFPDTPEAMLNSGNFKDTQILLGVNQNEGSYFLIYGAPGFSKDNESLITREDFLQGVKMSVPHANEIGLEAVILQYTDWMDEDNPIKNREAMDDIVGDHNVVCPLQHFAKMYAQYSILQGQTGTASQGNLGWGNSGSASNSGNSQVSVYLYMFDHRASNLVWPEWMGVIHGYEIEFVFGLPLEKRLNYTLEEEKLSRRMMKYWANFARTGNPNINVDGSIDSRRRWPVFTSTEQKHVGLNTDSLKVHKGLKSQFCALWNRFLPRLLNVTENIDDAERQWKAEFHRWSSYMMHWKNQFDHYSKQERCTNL
T1 sequence (P81908 whole entry): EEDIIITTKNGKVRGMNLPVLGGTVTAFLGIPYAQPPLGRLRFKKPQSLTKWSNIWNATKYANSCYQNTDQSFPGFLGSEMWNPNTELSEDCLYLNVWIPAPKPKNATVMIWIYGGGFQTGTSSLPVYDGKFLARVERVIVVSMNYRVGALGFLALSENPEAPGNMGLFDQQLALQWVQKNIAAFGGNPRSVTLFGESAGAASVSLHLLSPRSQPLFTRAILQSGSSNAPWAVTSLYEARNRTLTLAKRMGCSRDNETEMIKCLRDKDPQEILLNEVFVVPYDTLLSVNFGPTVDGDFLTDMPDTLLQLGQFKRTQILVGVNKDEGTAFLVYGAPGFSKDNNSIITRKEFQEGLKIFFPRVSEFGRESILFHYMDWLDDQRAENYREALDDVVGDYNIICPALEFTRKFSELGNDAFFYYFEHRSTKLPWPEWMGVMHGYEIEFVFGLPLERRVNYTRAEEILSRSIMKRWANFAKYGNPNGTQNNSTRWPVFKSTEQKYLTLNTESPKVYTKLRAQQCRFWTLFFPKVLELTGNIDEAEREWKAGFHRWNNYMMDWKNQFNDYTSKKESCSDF

Structure (SMILES) | solubility under the conditions of the assay [1] | Type of Inhibition ([2]; AChE, electric eel) | Ki' (uncompetitive inhibition) ([2]; AChE, electric eel, mean ± SE) | Grade of inhibition in% AChE ([2]; mean ± SE) | Ki ([2]; read-out: Ki (competitive inhibition), AChE, electric eel, mean ± SE) | Type of Inhibition [3] | Ki′ (uncompetitive inhibition) [3] | Ki [3] | Grade of inhibition in% BChE [3]
CC(=O)OC1CCC2(C)C(CCC3(C)C2CC=C2C4CC(C)(C)CCC4(C(=O)NCCN(C)C)CCC23C)C1(C)C (stereo not drawn) [Compound 22, (3β)-N-[2-(Dimethylamino)-ethyl]-3-acetyloxy-olean-12-en-28-amide] | n.sol. | – | – | – | – | – | – | – | –
CC(=O)OC1CC2(C)C(CCC3(C)C2CC=C2C4CC(C)(C)CCC4(C(=O)NCCN(C)C)CCC23C)C(C)(C)C1OC(C)=O (stereo not drawn) [Compound 23, (2α,3β)-N-[2-(Dimethylamino)ethyl]-2,3-diacetyloxy-olean-12-en-28-amide] | n.sol. | – | – | – | – | – | – | – | –
CC(=O)O[C@H]1CC[C@@]2(C)C(CC[C@]3(C)C2CC=C2C4[C@@H](C)[C@H](C)CC[C@]4(C(=O)NCCN4CCCCC4)CC[C@]23C)C1(C)C (stereo partly shown) [Compound 41] | n.sol. | – | – | – | – | – | – | – | –
C=C(C)C1CC[C@]2(C(=O)NCCN3CCCCC3)CC[C@]3(C)C(CCC4[C@@]5(C)CC[C@H](O)C(C)(C)C5CC[C@]43C)C12 (stereo partly drawn) [Compound 49, (3β)-N-(2-piperidin-1-ylethyl)-3-hydroxy-lup-20(29)-en-28-amide] | – | mixed-type | 1420 ± 80 nM | 82.72 ± 0.09% | 1000 ± 90 nM | mixed-type | > 8000 nM | 2520 ± 290 nM | 66.02 ± 0.70%
CC(=O)[C@@H]1CC[C@]2(C(=O)NCCN3CCCCC3)CC[C@]3(C)[C@H](CC[C@@H]4[C@@]5(C)CC[C@H](O)C(C)(C)[C@@H]5CC[C@]43C)[C@@H]12 [Compound 50, (3β)-N-(2-Piperidin-1-ylethyl)-3-hydroxy-20-oxo-30-norlupan-28-amide] | – | – | – | 52.14 ± 1.55% | – | mixed-type | 3090 ± 30 nM | 970 ± 40 nM | 88.37 ± 0.85%

From publication PMC6429507, “Triterpene-Based Carboxamides Act as Good Inhibitors of Butyrylcholinesterase” (Molecules, 2019)
